Results reported in patent publication US8871767B2, “2-arylimidazo[1,2-B]pyridazine, 2-phenylimidazo[1,2-A]pyridine, and 2-phenylimidazo[1,2-A]pyrazine derivatives” (Hengrui (USA) Ltd., priority 2010, dated 2014).
Where two headings read alike, the source gives them in different places.

How the values were obtained:
[1] = system: Hedgehog pathway activation (GLi-luciferase reporter) in Shh Light II reporter cells; assay: Hedgehog pathway activation on Shh Light II reporter cells measured by luciferase activity; format: cell-based; conditions: Mus musculus, Shh Light II
Outline: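 Shh Light II reporter cells carrying a hedgehog-responsive GLi-luciferase reporter were stimulated either with 500 nM SAG, a direct Smoothened agonist, or with conditioned media containing human Sonic Hedgehog (hShh). Test compounds were evaluated for blocking this pathway activation, quantified by luciferase activity. Cell viability was monitored in parallel with the Celltiter-Blue® assay.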

[2] = system: Hedgehog pathway activation on 10T1/2/Smo#3 cells (C3H10T1/2 cells transfected with human Smoothened receptor); assay: Hedgehog pathway activation on 10T1/2/Smo#3 cells measured by ALP activity; format: cell-based; conditions: Mus musculus, C3H 10T1/2, 10T1/2/Smo#3 cells
Experimental: Hedgehog conditioned media was obtained by transfecting 293H cells with the full length gene encoding human Sonic Hedgehog (hShh) inserted into the pCMV6 expression vector, which contains a neomycin selectable marker and expresses the protein of interest with a C-terminal FLAG affinity tag. After selection in G418 containing media, conditioned media from Hedgehog expressing clones were tested for the ability to activate the hedgehog-responsive GLi-luciferase reporter in the Shh Light II cell line obtained by license from John Hopkins University (Taipale J, et al. Effects of oncogenic mutations in Smoothened and Patched can be reversed by cyclopamine. Nature 406: 1005-1009, 2000).
C3H10T1/2 cells were transfected with a pCMV expression vector containing the full length gene sequence encoding the human Smoothened receptor. Pooled cells, designated 10T1/2/Smo#3, growing in G418 selection media responded to activation by 10-20% conditioned hShh media with an approximate 5-10 fold increase in alkaline phosphaste (ALP) activity over untransfected parent C3H10T1/2 cells as measured by the conversion of the free acid of 4-methylumbelliferyl phosphate to a fluorescent product.
A test compound library was screened against hShh and 500 nM SAG (a direct agonist of the Smoothened receptor) activated 10T1/2/Smo#3 cells and Shh Light II reporter cells for the ability to block Hedgehog pathway activation. Concurrently, cell viability was measured by utilizing Celltiter-Blue® (Promega, Madison Wis.) viability assay. Active compounds were defined as those that inhibited Hedgehog signaling by greater than 50% with no concurrent loss in cell viability.
Their inhibitory activity against Hedgehog pathway activation on 10T1/2/Smo#3 cells as measured by ALP activity and Shh Light II reporter cells as measured by luciferase activity is shown in Table 1 below. In Table 1, +++ stands for an IC50 value that is less than 0.3 μM, ++ between 0.3 and 3 μM, + between 3 and 30 μM.
Additional data for compounds of the invention is shown below in Table 2. Their inhibitory activities against Hedgehog pathway activation are shown as IC50 values in μM on 10T1/2/Smo#3 cells as measured by ALP activity, or on Shh Light II reporter cells as measured by luciferase activity (hShh activation).

[3] = SAG activation (500 nM SAG), read-out: Shh Light II luciferase activity (SAG activation)
[4] = hShh activation, read-out: Shh (IC50, inhibition of Hedgehog pathway activation)
[5] = hShh activation, read-out: Shh Light II luciferase activity (hShh activation)
[6] = hShh activation, ALP activity, read-out: 10T1/2/Smo#3 ALP activity (hShh Activation)
[7] = measured by ALP activity, read-out: ALP (IC50, inhibition of Hedgehog pathway activation)

SMILES | IC50 [1, 3] | IC50 [1, 4] | IC50 [1, 5] | IC50 [2, 6] | IC50 [2, 7]
CC(C)(C)C(=O)Nc1cc(-c2cn3cc(-c4ccccc4F)ccc3n2)ccc1C(F)(F)F [Example 83, N-(5-(6-(2-fluorophenyl)imidazo[1,2-a]pyridin-2-yl)-2-(trifluoromethyl)phenyl)pivalamide] | 0.3 to 3 µM | 1.01 µM | 0.3 to 3 µM | 0.3 to 3 µM | 1.35 µM
CC(C)(C)C(=O)Nc1cc(-c2cn3cc(-c4cc(C(F)(F)F)ccc4F)ccc3n2)ccc1C(F)(F)F [Example 84, N-(5-(6-(2-fluoro-5-(trifluoromethyl)phenyl)imidazo[1,2-a]pyridin-2-yl)-2-(trifluoromethyl)phenyl)pivalamide] |  | 1.58 µM |  |  | 2.49 µM
CC(C)(C)C(=O)Nc1cc(-c2cn3cc(Cl)ncc3n2)ccc1C(F)(F)F [Example 85, N-(5-(6-chloroimidazo[1,2-a]pyrazin-2-yl)-2-(trifluoromethyl)phenyl)pivalamide] |  | 4.39 µM |  |  | 1.32 µM
CC(C)(C)C(=O)Nc1cc(-c2cn3cc(-c4ccccc4F)ncc3n2)ccc1C(F)(F)F [Example 86, N-(5-(6-(2-fluorophenyl)imidazo[1,2-a]pyrazin-2-yl)-2-(trifluoromethyl)phenyl)pivalamide] | 0.3 to 3 µM | 0.53 µM | < 0.3 µM | < 0.3 µM | 0.547 µM
Cc1ccc(-c2cn3cccnc3n2)cc1NC(=O)CC(C)(C)C [Example 89, N-(5-(imidazo[1,2-a]pyrimidin-2-yl)-2-methylphenyl)-3,3-dimethylbutanamide] | 3 to 30 µM |  | 3 to 30 µM | 3 to 30 µM | 
Cc1c(-c2cccc(NC(=O)C3CCCCC3)c2)nc2ncccn12 [Example 92, N-(3-(3-methylimidazo[1,2-a]pyrimidin-2-yl)phenyl)cyclohexanecarboxamide] | 3 to 30 µM |  | 3 to 30 µM | 3 to 30 µM | 
COc1ccc2nc(-c3ccc(C)c(NC(=O)C(C)(C)C)c3)cn2n1 [Example 94, N-(5-(6-methoxyimidazo[1,2-b]pyridazin-2-yl)-2-methylphenyl)pivalamide] |  | 0.614 µM |  |  | 1.52 µM
COc1ccc2nc(-c3ccc(C)c(NC(=O)c4ccccc4F)c3)cn2n1 [Example 96, 2-fluoro-N-(5-(6-methoxyimidazo[1,2-b]pyridazin-2-yl)-2-methylphenyl)benzamide] | 0.3 to 3 µM | 0.398 µM | 0.3 to 3 µM | 0.3 to 3 µM | 1.09 µM
COc1ccc2nc(-c3ccc(C)c(NC(=O)c4ccccc4)c3)cn2n1 [Example 97, N-(5-(6-methoxyimidazo[1,2-b]pyridazin-2-yl)-2-methylphenyl)benzamide] |  | 0.679 µM |  |  | 1.12 µM
COc1ccc2nc(-c3ccc(C)c(NC(=O)c4ccc(F)cc4Cl)c3)cn2n1 [Example 98, 2-chloro-4-fluoro-N-(5-(6-methoxyimidazo[1,2-b]pyridazin-2-yl)-2-methylphenyl)benzamide] |  | 1.34 µM |  |  | 2.04 µM
COc1ccc2nc(-c3ccc(C)c(NC(=O)c4ccccc4C(F)(F)F)c3)cn2n1 [Example 99, N-(5-(6-methoxyimidazo[1,2-b]pyridazin-2-yl)-2-methylphenyl)-2-(trifluoromethyl)benzamide] |  | > 10 µM |  |  | 3.69 µM
COc1ccc2nc(-c3ccc(C)c(NC(=O)c4cccc(C(F)(F)F)c4)c3)cn2n1 [Example 100, N-(5-(6-methoxyimidazo[1,2-b]pyridazin-2-yl)-2-methylphenyl)-3-(trifluoromethyl)benzamide] |  | 1.09 µM |  |  | 1.06 µM
COc1ccc2nc(-c3ccc(C)c(NC(=O)Cc4ccc(Cl)cc4)c3)cn2n1 [Example 101, 2-(4-chlorophenyl)-N-(5-(6-methoxyimidazo[1,2-b]pyridazin-2-yl)-2-methylphenyl)acetamide] | 3 to 30 µM | 0.89 µM | 0.3 to 3 µM | 3 to 30 µM | 7.01 µM
COc1ccc2nc(-c3ccc(C)c(NCc4ccc(F)cc4)c3)cn2n1 [Example 102, N-(4-fluorobenzyl)-5-(6-methoxyimidazo[1,2-b]pyridazin-2-yl)-2-methylaniline] |  | 9.12 µM |  |  | 4.21 µM
COc1cc(CNc2cc(-c3cn4nc(OC)ccc4n3)ccc2C)cc(OC)c1 [Example 103, N-(3,5-dimethoxybenzyl)-5-(6-methoxyimidazo[1,2-b]pyridazin-2-yl)-2-methylaniline] |  | > 10 µM |  |  | 3.93 µM
COc1cc(CN(Cc2cc(OC)cc(OC)c2)c2cc(-c3cn4nc(OC)ccc4n3)ccc2C)cc(OC)c1 [Example 104, N,N-bis(3,5-dimethoxybenzyl)-5-(6-methoxyimidazo[1,2-b]pyridazin-2-yl)-2-methylaniline] | 3 to 30 µM | > 10 µM | 3 to 30 µM | 3 to 30 µM | > 10 µM
Cc1ccc(-c2cn3ncccc3n2)cc1NC(=O)C(C)(C)C [Example 105, N-(5-(imidazo[1,2-b]pyridazin-2-yl)-2-methylphenyl)pivalamide] | 3 to 30 µM | 1.11 µM | 0.3 to 3 µM | 0.3 to 3 µM | 1.81 µM
COc1ccc2nc(-c3cc(NC(=O)C(C)(C)C)c(C)cc3C)cn2n1 [Example 106, N-(5-(6-methoxyimidazo[1,2-b]pyridazin-2-yl)-2,4-dimethylphenyl)pivalamide] | 0.3 to 3 µM | 0.774 µM | 0.3 to 3 µM | 0.3 to 3 µM | 2.5 µM

Further lines, results first:

IC50 [1, 3] | IC50 [1, 4] | IC50 [1, 5] | IC50 [2, 6] | IC50 [2, 7] | SMILES
 | 2.77 µM |  |  | 7.27 µM | Cc1cc(C)c(-c2cn3ncccc3n2)cc1NC(=O)C(C)(C)C [Example 107, N-(5-(imidazo[1,2-b]pyridazin-2-yl)-2,4-dimethylphenyl)pivalamide]
 | 2.47 µM |  |  | 5.23 µM | Cc1ccc(-c2cn3ncccc3n2)cc1NC(=O)CC(C)(C)C [Example 108, N-(5-(imidazo[1,2-b]pyridazin-2-yl)-2-methylphenyl)-3,3-dimethylbutanamide]
3 to 30 µM | 2.65 µM | 0.3 to 3 µM | 3 to 30 µM | 7 µM | COc1ccc2nc(-c3ccc(C)c(NC(=O)C(C)(C)C)c3)c(Cl)n2n1 [Example 109, N-(5-(3-chloro-6-methoxyimidazo[1,2-b]pyridazin-2-yl)-2-methylphenyl)pivalamide]
 | > 10 µM |  |  | 8.04 µM | COc1ccc2nc(-c3ccc(Cl)c(NC(=O)C(C)(C)C)c3)cn2n1 [Example 110, N-(2-chloro-5-(6-methoxyimidazo[1,2-b]pyridazin-2-yl)phenyl)pivalamide]
 | > 10 µM |  |  | 9.02 µM | COc1ccc2nc(-c3ccc(Cl)c(NC(=O)CC(F)(F)F)c3)cn2n1 [Example 111, N-(2-chloro-5-(6-methoxyimidazo[1,2-b]pyridazin-2-yl)phenyl)-3,3,3-trifluoropropanamide]
 | > 10 µM |  |  | 9.52 µM | COc1ccc2nc(-c3ccc(Cl)c(NC(=O)C4CCCC4)c3)cn2n1 [Example 112, N-(2-chloro-5-(6-methoxyimidazo[1,2-b]pyridazin-2-yl)phenyl)cyclopentanecarboxamide]
3 to 30 µM | 1 µM | 0.3 to 3 µM | 0.3 to 3 µM | 1.56 µM | CC(C)(C)C(=O)Nc1cc(-c2cn3ncccc3n2)ccc1Cl [Example 113, N-(2-chloro-5-(imidazo[1,2-b]pyridazin-2-yl)phenyl)pivalamide]
3 to 30 µM | 7.67 µM | 3 to 30 µM | 3 to 30 µM | > 10 µM | COc1ccc2nc(-c3ccc(C)c(NC(=O)C(C)(C)C)c3)c(-c3ccc(F)cc3)n2n1 [Example 114, N-(5-(3-(4-fluorophenyl)-6-methoxyimidazo[1,2-b]pyridazin-2-yl)-2-methylphenyl)pivalamide]
 | 2.87 µM |  |  | 2.81 µM | COc1ccc2nc(-c3cc(NC(=O)C(C)(C)C)ccc3Cl)cn2n1 [Example 115, N-(4-chloro-3-(6-methoxyimidazo[1,2-b]pyridazin-2-yl)phenyl)pivalamide]
